Read-outs that look alike come from different tables or passages of the source.
Assay type: physicochemical
Protocol: 1. Stress Testing of D-cycloserine Stability test was held with 500 mg of commercially available D-cycloserine from Macleods Pharma, opened and stored under high humidity (>90% RH or 75% RH) at room temperature, a high temperature (40° C. or 60° C.) or a light condition for 10 days. […] In the following experiments, the total impurity was set up to confirm the stability of D-cycloserine.

For `N[C@H]1CONC1=O` (stereo in doubt) [D-cycloserine (Macleods Pharma), 4-amino-3-isoxazolidinone], the Appearance (0 day) was “White Powder”, the “Total Impurity (%)” value (0 day) was 0.59% and the “Moisture-absorption Weight Gain (%)” value (25° C., 75% RH, 10 days) was 0.25%. For the same compound, the “Total Impurity (%)” value (25° C., 75% RH, 10 days) was 1.71%, the “Moisture-absorption Weight Gain (%)” value (25° C., >90% RH, 10 days) was 21.11% and the “Total Impurity (%)” value (25° C., >90% RH, 10 days) was 86.64%. The Appearance (40° C., 10 days) was “White Powder”, the “Total Impurity (%)” value (40° C., 10 days) was 0.70% and the Appearance (60° C., 10 days) was “White Powder”. The “Total Impurity (%)” value (60° C., 10 days) was 0.66%, the “Stability (in words)” value (10 days) was “relatively stable at 40 °C and 60 °C” and the Appearance (Light, 10 days) was “White Powder”. The “Total Impurity (%)” value (Light, 10 days) was 0.96%.

— patent US11291654B2, “Formulations of cycloserine compounds and applications thereof” (SyneuRx International (Taiwan) Corp., priority 2018, dated 2022)
